Measurements published in patent US5593970A, “Heterocyclic anthracycline analogs” (priority 1994, dated 1997).
Like-named read-outs stand apart in the source and are kept apart here.

Assays:
HT29 = assay: Soft agar colony formation disk diffusion assay; format: cell-based, human
Text: A more elaborate version of this fundamental assay, the soft agar colony formation disk diffusion assay was used. […] The effect of the test drug against tumoral cells could be measured by its inhibitory capacity against colony formation after the delivery of the compound, in different concentrations on an filter disk(4). A modified technique of this assay was used in order to investigate the antiproliferative activity of candidate compounds. Tumoral cells from solid tumors and ascitic lines were plated separately in a two layer agar matrix. Cell lines to be tested were suspended in an upper layer of 0.4% Noble agar (Difco#00142-01) in RPMI-1066 (Gibco#3201875) at a yield varying between 10^4 to 2×10^5 cells per 60 mm Petri dish. Plating efficiency was determined for each line in order to achieve an optimal number of colonies per dish. […] The bottom layer consisted of 0.8% Noble agar, 0.8% Tryptic Soy Broth (difco#0037001)in CMRL-1066/Fischer's. The bottom layers were used within 2 and 9 days of preparation. Plated dishes (bottom layer of agar, upper layer of cells and administered drug were incubated in humidified atmosphere at 37° C., 5% CO2 for 10-20 days depending upon the time necessary to observe adequate colonies (defined as a cell aggregate of more than 50 cells) both control and drug inhibited. Drugs were administered on a paper filter disk (Whatman No. 1) of 6.5 mm diameter placed on the upper layer at 1/3 distance from the edge of the dish. The anti-clonogenic activity of the compounds was measured as the zone of inhibition from the disk edge to the most proximal colonies. This zone of inhibition was checked on an inverted microscope (40×) and was measured with a micrometer mounted in the eyepiece. The ocular micrometer was calibrated with a stage micrometer set for a particular combination of ocular and objective lenses. […] We made a modification of the initial technique by not plating a solid tumor and a leukemia simultaneously in the same Petri dish. […] HUMAN TUMORS. […] LS180 (13) and BE1(14) were obtained from the Oncology Dept. of the Montreal General Hospital. […] Cell lines were routinely passaged twice a week by trypsinization and maintained in 25, or 75-sq. cm Falcon Plastic flasks at 37° C., 5% CO2 in humidified atmosphere. Both compounds were dissolved in DMSO (1 mg/100 ul) and brought to final volume (250 ul) with Millipore deionized sterile water. Further dilutions were made with […] volume of 25 ul of freshly prepared solution was placed on the filter disk and allowed to dry.

MATB.WT = assay: Soft agar colony formation disk diffusion assay; format: cell-based, rat
Text: (§1) A more elaborate version of this fundamental assay, the soft agar colony formation disk diffusion assay was used. This assay defines the relative activity of one particular drug versus a tumoral cell line type. The effect of the test drug against tumoral cells could be measured by its inhibitory capacity against colony formation after the delivery of the compound, in different concentrations on an filter disk(4). A modified technique of this assay was used in order to investigate the antiproliferative activity of candidate compounds. Tumoral cells from solid tumors and ascitic lines were plated separately in a two layer agar matrix. Cell lines to be tested were suspended in an upper layer of 0.4% Noble agar (Difco#00142-01) in RPMI-1066 (Gibco#3201875) at a yield varying between 10^4 to 2×10^5 cells per 60 mm Petri dish. Plating efficiency was determined for each line in order to achieve an optimal number of colonies per dish. Plates were examined before drug administration to confirm a uniform dispersion of single cells. The bottom layer consisted of 0.8% Noble agar, 0.8% Tryptic Soy Broth (difco#0037001)in CMRL-1066/Fischer's. The bottom layers were used within 2 and 9 days of preparation. Plated dishes (bottom layer of agar, upper layer of cells and administered drug were incubated in humidified atmosphere at 37° C., 5% CO2 for 10-20 days depending upon the time necessary to observe adequate colonies (defined as a cell aggregate of more than 50 cells) both control and drug inhibited. Drugs were administered on a paper filter disk (Whatman No. 1) of 6.5 mm diameter placed on the upper layer at 1/3 distance from the edge of the dish. The anti-clonogenic activity of the compounds was measured as the zone of inhibition from the disk edge to the most proximal colonies. This zone of inhibition was checked on an inverted microscope (40×) and was measured with a micrometer mounted in the eyepiece. The ocular micrometer was calibrated with a stage micrometer set for a particular combination of ocular and objective lenses. […] We made a modification of the initial technique by not plating a solid tumor and a leukemia simultaneously in the same Petri dish. Anti-clonogenic tests performed on leukemia cell line have helped in the discovery of the majority of current clinically used cytostatic drugs. Our tests on solid tumor lines (animal or human) may help define active compounds with solid tumor specificity. […] Murine tumors were maintained IN VIVO in order to diminish the selection of subpopulations of cells normally present in the heterogenous IN VIVO tumor. The actual drug sensitivity assay was done IN VITRO. For these experiments cells from freshly excised tumors or from ascitic fluids were maintained in RPMI-1066. Both compounds were dissolved in DMSO (1 mg/100 ul) and brought to final volume (250 ul) with Millipore deionized sterile water. Further dilutions were made with […] volume of 25 ul of freshly prepared solution was placed on the filter disk and allowed to dry.

MATB/ADR = assay: Soft agar colony formation disk diffusion assay; format: cell-based, rat
Text: as §1

B16 = assay: Soft agar colony formation disk diffusion assay; format: cell-based, murine
Text: as §1

M5076 = assay: Soft agar colony formation disk diffusion assay; format: cell-based, murine
Text: as §1

P388/ADR = assay: Soft agar colony formation disk diffusion assay; format: cell-based, murine
Text: as §1

P388 = assay: Soft agar colony formation disk diffusion assay; format: cell-based, murine
Text: as §1

SKOV3 = assay: Microculture tetrazolium assay; format: cell-based; settings: read-out: IC50
SKVLB = assay: Microculture tetrazolium assay; format: cell-based; settings: for VLB/OV3: IC50 ratio SKVLB/SKOV3; for IC50: SKVLB, read-out: IC50
T47D = assay: Microculture tetrazolium assay; format: cell-based; settings: read-out: IC50

Compound	zone of inhibition (HT29; 10 μg/DISK)	zone of inhibition (HT29; 100 μg/DISK)	zone of inhibition (MATB.WT; 10 μg/DISK)	zone of inhibition (MATB.WT; 100 μg/DISK)	cross resistance with adriamycin, MATB/ADR vs MATB.WT (MATB/ADR)	zone of inhibition (MATB/ADR; 10 μg/DISK)	zone of inhibition (MATB/ADR; 100 μg/DISK)	zone of inhibition (B16; 10 μg/DISK)	zone of inhibition (B16; 100 μg/DISK)	zone of inhibition (M5076; 10 μg/DISK)	zone of inhibition (M5076; 100 μg/DISK)	zone of inhibition (P388/ADR; 10 μg/DISK)	zone of inhibition (P388/ADR; 100 μg/DISK)	zone of inhibition (P388; 10 μg/DISK)	zone of inhibition (P388; 100 μg/DISK)	IC50 (SKOV3; SKOV3)	VLB/OV3 (SKVLB)	IC50 (SKVLB)	IC50 (T47D)	IC50 (SKOV3; Homo sapiens, SK-OV-3, SKOV3)	further results
3-(2-acetoxy-1-propeneketal)aceto-6-acetoxy-1-hydroxy-1,2,3,4-tetrahydro-(2-oxygen)naphtacene-5,12-dione and 3-(2-acetoxy-1-propeneketal)-aceto-11-acetoxy-1-hydroxy-1,2,3,4-tetrahydro-(2-oxygen)naphtacene-5,12-dione [BCH-710]	30.0 ± 8.4 Zone Units	69.0 ± 30.0 Zone Units	44.0 Zone Units	366.0 ± 0.0 Zone Units	greater cytotoxicity in the resistant breast tumor cell line	288.0 ± 21.9 Zone Units	350.0 ± 64.3 Zone Units	21.0 ± 2.1 Zone Units	21.0 ± 2.1 Zone Units	209.5 ± 21.9 Zone Units	533.0 ± 20.0 Zone Units	0 Zone Units	110.0 ± 0.0 Zone Units	13.0 ± 0.0 Zone Units	326.5 ± 43.1 Zone Units	3.98 µM	1.30	5.19 µM	3.57 µM		
3-Carbomethoxy-1,11-dihydroxy-1,2,3,4-tetrahydro-(2-oxygen)naphthacene-5,12-dione 3-Carbomethoxy-1,6-dihydroxy-1,2,3,4-tetrahydro-(2-oxygen)naphthacene-5,12-dione [BCH-711]	27.0 ± 4.2 Zone Units	91.5 ± 43.1 Zone Units	27.0 ± 4.2 Zone Units	137.0 ± 21.2 Zone Units	greater cytotoxicity in the resistant breast tumor cell line	45.5 ± 21.9 Zone Units	107.0 ± 21.9 Zone Units	27.0 ± 4.2 Zone Units	137.0 ± 21.2 Zone Units	55.0 ± 8.4 Zone Units	198.0 ± 21.2 Zone Units	40.0 ± 20.0 Zone Units	150.0 ± 30.0 Zone Units	45.5 ± 21.9 Zone Units	183.0 ± 0.0 Zone Units	11.1 µM	1.22	13.5 µM	12.4 µM		
CCOC(=O)[C@@H]1CC2=C(C(=O)c3cc4ccccc4c(O)c3C2=O)[C@@H](O[C@H]2C[C@H](NC(=O)C(F)(F)F)[C@H](O)[C@H](C)O2)O1 [BCH-681, (1'S,1R,3S)Ethyl[6-hydroxy-5,12-dioxo-1-(3'-trifuloroacetamido-1-daunosaminyl)-3,4,5,12-tetrahydroanthraceno(2,3-C)pyran-3-yl]formate]	106.7 ± 21.5 Zone Units	213.5 ± 43.1 Zone Units	51.8 ± 4.3 Zone Units	176.9 ± 8.6 Zone Units	no cross resistance with adriamycin	54.9 ± 8.6 Zone Units	244.0 ± 43.1 Zone Units										1.16	6.99 µM		6.02 µM	IC50 (T47D; Homo sapiens): 8.15 µM
CCOC(=O)[C@H]1CC2=C(C(=O)c3cc4ccccc4c(O)c3C2=O)[C@H](O[C@H]2C[C@H](NC(=O)C(F)(F)F)[C@H](O)[C@H](C)O2)O1 [BCH-684, (1'S,1S,3R)Ethyl[6-hydroxy-5,12-dioxo-1-(3'-trifluoroacetamido-1-daunosaminyl)-3,4,5,12-tetrahydroanthraceno(2,3-C)pyran-3-yl]formate]	137.2 ± 21.5 Zone Units	170.8 ± 86.2 Zone Units	131.3 ± 12.9 Zone Units	366.0 ± 172.5 Zone Units	no cross resistance with adriamycin	122.0 ± 17.0 Zone Units	320.2 ± 107.8 Zone Units										1.52	6.38 µM		4.19 µM	
CC(=O)Oc1c2c(c(O)c3ccccc13)C(=O)C1=C(C2=O)C(O)OC(C(C)=O)C1 (stereo not shown) [BCH-704, Methyl(11-acetoxy-1,6-dihydroxy-5,12-dioxo-3,4,5,12-tetrahydroanthraceno[2,3-c]pyran-3-yl)ketone]	39.6 ± 12.9 Zone Units	152.5 ± 43.1 Zone Units	198.5 ± 21.9 Zone Units	414.8 ± 25.8 Zone Units	greater cytotoxicity in the resistant breast tumor cell line	320.2 ± 64.7 Zone Units	527.4 ± 72.9 Zone Units										0.84	13.8 µM		16.4 µM	IC50 (T47D; Homo sapiens): 11.8 µM
C=CC1CC2=C(C(=O)c3cc4ccccc4c(O)c3C2=O)C(OC)O1 (stereo not shown) [BCH-712, 6-hydroxy-1-methoxy-1,2,3,4-tetrahydro-3-vinyl-(2-oxygen) naphthacene-5,12-dione]	0 Zone Units	55.0 ± 8.4 Zone Units	21.0 ± 4.3 Zone Units	76.0 ± 21.2 Zone Units	no cross resistance with adriamycin	0 Zone Units	64.0 ± 4.2 Zone Units	0 Zone Units	27.0 ± 4.2 Zone Units	0 Zone Units	158.0 ± 34.6 Zone Units	0 Zone Units	42.5 ± 9.1 Zone Units	6.1 ± 0.0 Zone Units	70.0 ± 21.2 Zone Units						
